In article PMC10538245, “Fragment merging approach for design, synthesis, and biological assessment of urea/acetyl hydrazide clubbed thienopyrimidine derivatives as GSK-3β inhibitors” (BMC Chemistry, 2023):

Key:
[1] = target: GSK-3β (Homo sapiens, UniProt P49841); assay: GSK-3β kinase inhibition, Z'-LYTE FRET assay (Thermo Fisher SelectScreen); type: biochemical; conditions: for inhibition at 100 µM: 100 μM single dose
[2] = system: MALME-3 M; assay: NCI 60-cell line one dose antiproliferative assay; type: cell-based; conditions: Homo sapiens, Melanoma, 10 µM one dose, read-out: Percent inhibition (cell growth inhibition %)
Excerpt: (§1) The National Cancer Institute "NCI", NIH, Bethesda, Maryland, USA (www.dtp.nci.nih.gov) chose six of the final compounds for the Developmental Therapeutic Program (DTP), codes (5a, 5b, 5c, 5d, 6a, 6b). The NCI screening service will favor compounds with drug-like modes of action based on computer-aided design. Selection The criterion for screening is the possibility of the submitted compounds to provide diversity to the NCI small molecule chemical collection. This screen employs 60 different Leukemia, melanoma, and additional tumor cell lines of the human from brain, kidney, lung, ovary, colon, breast, and prostate cancers. All compounds were picked based on their NCI codes. NSC: D-820696/1, NSC: D-820697/1, NSC: D-820698/1, NSC: D-820699/1, NSC: D-820700/1, NSC: D-820701/1. The initial 10 µM one dose percent inhibition assay was performed on the entire NCI 60 cell panel to examine the different chemotypes of this work. The results are presented as a percentage of cell growth on each of the 60 NCI cell line panels for each of the investigated substances in Table 2.
(§2) The NCI cancer screening procedure includes a comparison of all substances to the sixty NCI cell line panel representing leukemia, NSCLC, cell lines from breast cancer, prostate cancer, melanoma, CNS cancer, renal cancer, ovarian cancer, and colon cancer at a single point of 10 uM. The results of the single-dose screen can be presented using a mean graph.

[3] = system: SNB-19; assay: NCI 60-cell line one dose antiproliferative assay; type: cell-based; conditions: Homo sapiens; SNB-19, CNS Cancer, 10 µM one dose; read-out: Percent inhibition (cell growth inhibition %)
Excerpt: as §1, §2

[4] = system: M14; assay: NCI 60-cell line one dose antiproliferative assay; type: cell-based; conditions: Homo sapiens; M14, Melanoma, 10 µM one dose; read-out: Percent inhibition (cell growth inhibition %)
Excerpt: as §1, §2

[5] = system: HS 578 T; assay: NCI 60-cell line one dose antiproliferative assay; type: cell-based; conditions: Homo sapiens, Breast Cancer, 10 µM one dose, read-out: Percent inhibition (cell growth inhibition %)
Excerpt: as §1, §2

[6] = system: SK-MEL-5; assay: NCI 60-cell line one dose antiproliferative assay; type: cell-based; conditions: Homo sapiens; SK-MEL-5, Melanoma, 10 µM one dose; read-out: Percent inhibition (cell growth inhibition %)
Excerpt: as §1, §2

[7] = system: K-562; assay: NCI 60-cell line one dose antiproliferative assay; type: cell-based; conditions: Homo sapiens, K562; K-562, Leukemia, 10 µM one dose; read-out: Percent inhibition (cell growth inhibition %)
Excerpt: as §1, §2

[8] = system: A498; assay: NCI 60-cell line one dose antiproliferative assay; type: cell-based; conditions: Homo sapiens; A498, Renal Cancer, 10 µM one dose; read-out: Percent inhibition (cell growth inhibition %)
Excerpt: as §1, §2

[9] = system: NCI-H226; assay: NCI 60-cell line one dose antiproliferative assay; type: cell-based; conditions: Homo sapiens; NCI-H226, Non-Small Cell Lung Cancer, 10 µM one dose; read-out: Percent inhibition (cell growth inhibition %)
Excerpt: as §1, §2

[10] = system: PC-3; assay: NCI 60-cell line one dose antiproliferative assay; type: cell-based; conditions: Homo sapiens; PC-3, Prostate Cancer, 10 µM one dose; read-out: Percent inhibition (cell growth inhibition %)
Excerpt: as §1, §2

[11] = system: SF-268; assay: NCI 60-cell line one dose antiproliferative assay; type: cell-based; conditions: Homo sapiens; SF-268, CNS Cancer, 10 µM one dose; read-out: Percent inhibition (cell growth inhibition %)
Excerpt: as §1, §2

[12] = system: SF-295; assay: NCI 60-cell line one dose antiproliferative assay; type: cell-based; conditions: Homo sapiens; SF-295, CNS Cancer, 10 µM one dose; read-out: Percent inhibition (cell growth inhibition %)
Excerpt: as §1, §2

[13] = system: OVCAR-5; assay: NCI 60-cell line one dose antiproliferative assay; type: cell-based; conditions: Homo sapiens; OVCAR-5, Ovarian Cancer, 10 µM one dose; read-out: Percent inhibition (cell growth inhibition %)
Excerpt: as §1, §2

[14] = system: HOP-92; assay: NCI 60-cell line one dose antiproliferative assay; type: cell-based; conditions: Homo sapiens; HOP-92, Non-Small Cell Lung Cancer, 10 µM one dose; read-out: Percent inhibition (cell growth inhibition %)
Excerpt: as §1, §2

[15] = system: ACHN; assay: NCI 60-cell line one dose antiproliferative assay; type: cell-based; conditions: Homo sapiens, Renal Cancer, 10 µM one dose, read-out: Percent inhibition (cell growth inhibition %)
Excerpt: as §1, §2

[16] = system: UO-31; assay: NCI 60-cell line one dose antiproliferative assay; type: cell-based; conditions: Homo sapiens; UO-31, Renal Cancer, 10 µM one dose; read-out: Percent inhibition (cell growth inhibition %)
Excerpt: as §1, §2

[17] = system: U251; assay: NCI 60-cell line one dose antiproliferative assay; type: cell-based; conditions: Homo sapiens, U-251; U251, CNS Cancer, 10 µM one dose; read-out: Percent inhibition (cell growth inhibition %)
Excerpt: as §1, §2

[18] = system: MCF7; assay: NCI 60-cell line one dose antiproliferative assay; type: cell-based; conditions: Homo sapiens; MCF7, Breast Cancer, 10 µM one dose; read-out: Percent inhibition (cell growth inhibition %)
Excerpt: as §1, §2

[19] = system: NCI-H522; assay: NCI 60-cell line one dose antiproliferative assay; type: cell-based; conditions: Homo sapiens; NCI-H522, Non-Small Cell Lung Cancer, 10 µM one dose; read-out: Percent inhibition (cell growth inhibition %)
Excerpt: as §1, §2

[20] = system: LOX IMVI; assay: NCI 60-cell line one dose antiproliferative assay; type: cell-based; conditions: Homo sapiens, Melanoma, 10 µM one dose, read-out: Percent inhibition (cell growth inhibition %)
Excerpt: as §1, §2

[21] = system: SF-539; assay: NCI 60-cell line one dose antiproliferative assay; type: cell-based; conditions: Homo sapiens; SF-539, CNS Cancer, 10 µM one dose; read-out: Percent inhibition (cell growth inhibition %)
Excerpt: as §1, §2

[22] = system: 786–0; assay: NCI 60-cell line one dose antiproliferative assay; type: cell-based; conditions: Homo sapiens; 786–0, Renal Cancer, 10 µM one dose; read-out: Percent inhibition (cell growth inhibition %)
Excerpt: as §1, §2

[23] = system: SR; assay: NCI 60-cell line one dose antiproliferative assay; type: cell-based; conditions: Homo sapiens, Leukemia, 10 µM one dose, read-out: Percent inhibition (cell growth inhibition %)
Excerpt: as §1, §2

[24] = system: UACC-62; assay: NCI 60-cell line one dose antiproliferative assay; type: cell-based; conditions: Homo sapiens; UACC-62, Melanoma, 10 µM one dose; read-out: Percent inhibition (cell growth inhibition %)
Excerpt: as §1, §2

[25] = system: SN12C; assay: NCI 60-cell line one dose antiproliferative assay; type: cell-based; conditions: Homo sapiens, Renal Cancer, 10 µM one dose, read-out: Percent inhibition (cell growth inhibition %)
Excerpt: as §1, §2

[26] = system: IGROV1; assay: NCI 60-cell line one dose antiproliferative assay; type: cell-based; conditions: Homo sapiens, IGROV-1; IGROV1, Ovarian Cancer, 10 µM one dose; read-out: Percent inhibition (cell growth inhibition %)
Excerpt: as §1, §2

[27] = system: T-47D; assay: NCI 60-cell line one dose antiproliferative assay; type: cell-based; conditions: Homo sapiens, T47D, Breast Cancer, 10 µM one dose, read-out: Percent inhibition (cell growth inhibition %)
Excerpt: as §1, §2

[28] = system: SNB-75; assay: NCI 60-cell line one dose antiproliferative assay; type: cell-based; conditions: Homo sapiens; SNB-75, CNS Cancer, 10 µM one dose; read-out: Percent inhibition (cell growth inhibition %)
Excerpt: as §1, §2

[29] = system: MDA-MB-231/ATCC; assay: NCI 60-cell line one dose antiproliferative assay; type: cell-based; conditions: Homo sapiens, Breast Cancer, 10 µM one dose, read-out: Percent inhibition (cell growth inhibition %)
Excerpt: as §1, §2

[30] = system: CAKI-1; assay: NCI 60-cell line one dose antiproliferative assay; type: cell-based; conditions: Homo sapiens; CAKI-1, Renal Cancer, 10 µM one dose; read-out: Percent inhibition (cell growth inhibition %)
Excerpt: as §1, §2

[31] = system: A549/ ATCC; assay: NCI 60-cell line one dose antiproliferative assay; type: cell-based; conditions: Homo sapiens, Non-Small Cell Lung Cancer, 10 µM one dose, read-out: Percent inhibition (cell growth inhibition %)
Excerpt: as §1, §2

[32] = system: EKVX; assay: NCI 60-cell line one dose antiproliferative assay; type: cell-based; conditions: Homo sapiens, Non-Small Cell Lung Cancer, 10 µM one dose, read-out: Percent inhibition (cell growth inhibition %)
Excerpt: as §1, §2

[33] = system: HCT-116; assay: NCI 60-cell line one dose antiproliferative assay; type: cell-based; conditions: Homo sapiens; HCT-116, Colon Cancer, 10 µM one dose; read-out: Percent inhibition (cell growth inhibition %)
Excerpt: as §1, §2

[34] = system: NCI-H23; assay: NCI 60-cell line one dose antiproliferative assay; type: cell-based; conditions: Homo sapiens; NCI-H23, Non-Small Cell Lung Cancer, 10 µM one dose; read-out: Percent inhibition (cell growth inhibition %)
Excerpt: as §1, §2

[35] = system: MOLT-4; assay: NCI 60-cell line one dose antiproliferative assay; type: cell-based; conditions: Homo sapiens; MOLT-4, Leukemia, 10 µM one dose; read-out: Percent inhibition (cell growth inhibition %)
Excerpt: as §1, §2

[36] = system: BT-549; assay: NCI 60-cell line one dose antiproliferative assay; type: cell-based; conditions: Homo sapiens; BT-549, Breast Cancer, 10 µM one dose; read-out: Percent inhibition (cell growth inhibition %)
Excerpt: as §1, §2

[37] = system: MDA-MB-435; assay: NCI 60-cell line one dose antiproliferative assay; type: cell-based; conditions: Homo sapiens; MDA-MB-435, Melanoma, 10 µM one dose; read-out: Percent inhibition (cell growth inhibition %)
Excerpt: as §1, §2

Sequence of GSK-3β (P49841 whole entry): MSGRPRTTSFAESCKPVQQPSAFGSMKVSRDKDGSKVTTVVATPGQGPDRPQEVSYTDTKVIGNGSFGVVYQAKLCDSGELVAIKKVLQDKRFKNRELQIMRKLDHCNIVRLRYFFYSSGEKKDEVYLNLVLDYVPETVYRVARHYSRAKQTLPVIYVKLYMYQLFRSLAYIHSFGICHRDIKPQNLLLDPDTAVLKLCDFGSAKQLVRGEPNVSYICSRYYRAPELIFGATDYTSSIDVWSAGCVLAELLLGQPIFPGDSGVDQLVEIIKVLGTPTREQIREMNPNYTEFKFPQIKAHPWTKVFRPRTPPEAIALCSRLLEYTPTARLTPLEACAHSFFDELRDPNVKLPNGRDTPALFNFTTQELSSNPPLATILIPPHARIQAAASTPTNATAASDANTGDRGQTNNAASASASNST

COc1ccc(C=NNC(=O)COc2ncnc3sc4c(c23)CCCC4)c(OC)c1OC [5a, 2-((5,6,7,8-Tetrahydrobenzo [4,5]thieno[2,3-d]pyrimidin-4-yl)oxy)-N'-(2,3,4-trimethoxybenzylidene) acetohydrazide]
inhibition at 10 µM ([1]; 10 μM): 6% | inhibition at 100 µM [1]: 24% | inhibition at 10 µM [2]: 2.96% | inhibition at 10 µM [3]: 6.88% | inhibition at 10 µM [4]: 1.68% | inhibition at 10 µM [5]: 7.21% | inhibition at 10 µM [6]: 1.37% | inhibition at 10 µM [7]: 7.93% | inhibition at 10 µM [8]: 11.8% | inhibition at 10 µM [9]: 0.3% | inhibition at 10 µM [10]: 2.52% | inhibition at 10 µM [11]: 0.3% | inhibition at 10 µM [12]: 0.79% | inhibition at 10 µM [13]: 5% | inhibition at 10 µM [14]: 2.18% | inhibition at 10 µM [15]: 0.55% | inhibition at 10 µM [16]: 23.3% | inhibition at 10 µM [17]: 0.3% | inhibition at 10 µM [18]: 10.7% | inhibition at 10 µM [19]: 5.39% | inhibition at 10 µM [20]: 4.82% | inhibition at 10 µM [21]: 5.93% | inhibition at 10 µM [22]: 0.81% | inhibition at 10 µM [23]: 2.15% | inhibition at 10 µM [24]: 8.06% | inhibition at 10 µM [25]: 5.91% | inhibition at 10 µM [26]: 1.47% | inhibition at 10 µM [27]: 4.24% | inhibition at 10 µM [28]: 28.5% | inhibition at 10 µM [29]: 6.61% | inhibition at 10 µM [30]: 7.04% | melting point: 280 to 281 °C

O=C(COc1ncnc2sc3c(c12)CCCC3)NN=Cc1ccc(Br)cc1 [5c, N'-(4-Bromobenzylidene)-2-((5,6,7,8-tetrahydrobenzo[4,5]thieno[2,3-d]pyrimidin-4-yl)oxy)acetohydrazide]
inhibition at 100 µM [1]: 43% | inhibition at 10 µM [31]: 1.87% | inhibition at 10 µM [3]: 5.53% | inhibition at 10 µM [5]: 7.31% | inhibition at 10 µM [32]: 3.66% | inhibition at 10 µM [7]: 13.5% | inhibition at 10 µM [8]: 21.3% | inhibition at 10 µM [11]: 5.08% | inhibition at 10 µM [13]: 10% | inhibition at 10 µM [33]: 3.24% | inhibition at 10 µM [16]: 16.6% | inhibition at 10 µM [34]: 0.25% | inhibition at 10 µM [17]: 6.99% | inhibition at 10 µM [18]: 8.67% | inhibition at 10 µM [19]: 10.3% | inhibition at 10 µM [20]: 3.68% | inhibition at 10 µM [21]: 1.02% | inhibition at 10 µM [35]: 9.38% | inhibition at 10 µM [22]: 5.22% | inhibition at 10 µM [23]: 8.29% | inhibition at 10 µM [24]: 6.58% | inhibition at 10 µM [25]: 3.09% | inhibition at 10 µM [26]: 2.52% | inhibition at 10 µM [36]: 2.58% | inhibition at 10 µM [28]: 13.6% | inhibition at 10 µM [29]: 11.2% | inhibition at 10 µM [30]: 16.7% | inhibition at 10 µM [37]: 0.85% | melting point: 290 to 292 °C
